These results are taken from patent US10562912B2 (C&C Research Laboratories, priority 2013, dated 2020).

Common to all, as to format: cell-based
In one assay the test system is AGS. The assay is described as follows: Cell growth inhibition assay, stomach cancer cell line AGS. The note with it: Homo sapiens; AGS stomach cancer cell line, 3,000 cells/well. As to the method: The inhibitory effects of the compounds of the present invention against the growth of cancer cells were evaluated as shown below. The cancer cell lines including stomach cancer cell line (AGS), breast cancer cell lines (MDA-MB-231, MDA-MB-468, and BT-549), prostate cancer cell lines (LNCaP and DU-145), colon cancer cell line (HCT116), ovarian cancer cell line (SW626), liver cancer cell line (Hep3B), kidney cancer cell line (ACHN), lung cancer cell line (NCI-H23) and blood cancer cell lines (HEL92.1.7 and U266) were cultured under the protocol provided by each supplier. A medium supplemented with 10 ng/mL of IL-6 was used for LNCaP, a prostate cancer cell line, when treated with a drug. Each type of cells to be used in experiments were sub-cultured in a 96-well plate by counting the exact number of cells using Tali™ Image-based Cytometer (Life Technologies). In a 96-well plate, AGS, HCT116, and DU-145 were employed with 3,000 cells/well; NCI-H23, SW626, Hep3B, ACHN, BT-549, MDA-MB-231, HEL92.1.7, and U266 were employed with 5,000 cells/well; and LNCaP and MDA-MB-468 were employed with 10,000 cells/well. The cells were treated with the compounds listed in Examples which were diluted in various concentrations. Upon completion of the compounds treatment, AGS, HCT116, SW626, DU145, NCI-H23, Hep3B, ACHN, BT-549, LNCaP, HEL92.1.7, and U266 cells were cultured at 37° C. under 5% CO2 for from 72 to 96 hours, and MDA-MB-231 and MDA-MB-468 cells were cultured at 37° C. in air for from 72 to 96 hours. Subsequently, the cells were observed under microscope and drug precipitation and particular findings were investigated and recorded. And then, the 96-well plate was placed at room temperature for 30 minutes, added with 20 μL/well of CellTiter-Glo solution (Cat No. G7573, Promega) and shaken for 10 minutes, followed by being subjected to the measurement using PHERAstar™ microplate reader (BMG LABTECH) according to the supplier's general luminometer protocol. Wells where only culture liquid added without cell plating were used as a negative control, whereas wells where culture liquid containing 0.1% DMSO instead of the compounds listed in Examples were used as a positive control.

A further assay addresses T1, STAT3 (Homo sapiens, UniProt P40763).
T1 construct: plasmid pSTAT3-TA-luc), which contains a stably operating STAT3 promoter; endogenous in cells
In words: STAT3 reporter gene assay (luciferase), LNCaP stable cell line (pSTAT3-TA-luc), IL-6 stimulation. In short, it runs like this: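 Cytotoxicity was run on a duplicate plate with CellTiter-Glo, while the other plate gave luciferase read-outs from lysed LNCaP pSTAT3-TA-luc reporter cells. Cells were treated with graded compound concentrations plus IL-6 (10 ng/mL final) for 24–48 h in 3% DCC-FBS medium. Unstimulated and stimulated wells served as negative and positive controls.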

For another assay, the system named is LNCaP. The assay is described as follows: Cell growth inhibition assay, prostate cancer cell line LNCaP (medium with 10 ng/mL IL-6). The note with it: Homo sapiens, medium supplemented with 10 ng/mL of IL-6, 10,000 cells/well.

T1 sequence (P40763 whole entry): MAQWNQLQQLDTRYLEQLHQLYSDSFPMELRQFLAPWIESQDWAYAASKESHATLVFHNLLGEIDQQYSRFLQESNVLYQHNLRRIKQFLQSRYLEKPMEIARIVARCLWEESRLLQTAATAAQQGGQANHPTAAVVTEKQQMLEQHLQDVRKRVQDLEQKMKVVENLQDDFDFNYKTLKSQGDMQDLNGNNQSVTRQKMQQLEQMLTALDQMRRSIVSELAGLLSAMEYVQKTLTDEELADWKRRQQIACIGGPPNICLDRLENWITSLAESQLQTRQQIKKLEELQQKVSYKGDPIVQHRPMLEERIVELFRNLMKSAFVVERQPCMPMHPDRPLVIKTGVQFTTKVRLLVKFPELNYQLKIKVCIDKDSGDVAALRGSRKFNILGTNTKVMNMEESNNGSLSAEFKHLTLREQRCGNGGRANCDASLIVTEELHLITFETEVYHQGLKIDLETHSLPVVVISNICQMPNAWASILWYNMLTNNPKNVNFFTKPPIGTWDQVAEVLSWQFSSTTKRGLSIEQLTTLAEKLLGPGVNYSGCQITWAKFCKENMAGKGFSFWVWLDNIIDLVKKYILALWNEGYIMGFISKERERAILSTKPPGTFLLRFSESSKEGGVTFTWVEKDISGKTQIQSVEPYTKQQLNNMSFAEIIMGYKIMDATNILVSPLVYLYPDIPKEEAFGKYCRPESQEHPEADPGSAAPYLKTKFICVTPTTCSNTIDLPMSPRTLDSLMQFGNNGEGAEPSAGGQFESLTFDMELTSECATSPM

`CS(=O)(=O)Nc1ccc2cc(C(=O)Nc3cccc(-c4ccc(C#N)cc4C(F)(F)F)c3)[nH]c2c1` [Example 284, N-(4′-cyano-2′-(trifluoromethyl)-[1,1′-biphenyl]-3-yl)-6-(methylsulfonamido)-1H-indole-2-carboxamide]: the IC50 (as a rule, the concentration that inhibits the measured activity by half) came to 11.3 µM with AGS, 1.9 µM against STAT3 and 3.1 µM in the assay with LNCaP.

On to `CS(=O)(=O)Nc1ccc2cc(C(=O)Nc3cccc(-c4ccc([N+](=O)[O-])cc4C(F)(F)F)c3)[nH]c2c1` [Example 285, 6-(methylsulfonamido)-N-(4′-nitro-2′-(trifluoromethyl)-[1,1′-biphenyl]-3-yl)-1H-indole-2-carboxamide], for which the IC50 in the assay with AGS stood at 13.6 µM; against STAT3, 2.5 µM; in the assay on LNCaP, 3.3 µM.

On to `COC(=O)c1ccc(C(F)(F)F)c(-c2cccc(NC(=O)c3cc4ccc([N+](=O)[O-])cc4[nH]3)c2)c1` [Example 286, methyl 3′-(6-nitro-1H-indole-2-carboxamido)-6-(trifluoromethyl)-[1,1′-biphenyl]-3-carboxylate], for which the IC50 with AGS is 10.2 µM; against STAT3, over 10 µM; in the assay with LNCaP, over 10 µM.

As for `COC(=O)c1ccc(C(F)(F)F)c(-c2cccc(NC(=O)c3cc4ccc(NS(C)(=O)=O)cc4[nH]3)c2)c1` [Example 287, methyl 3′-(6-(methylsulfonamido)-1H-indole-2-carboxamido)-6-(trifluoromethyl)-[1,1′-biphenyl]-3-carboxylate], the 50% inhibitory concentration (IC50) in the assay on AGS was 23.6 µM; against STAT3, over 10 µM; in the assay with LNCaP it was over 10 µM.

For the compound `COC(=O)c1cc(-c2cccc(NC(=O)c3cc4ccc([N+](=O)[O-])cc4[nH]3)c2)c(C(F)(F)F)cc1OC` [Example 288, methyl 4-methoxy-3′-(6-nitro-1H-indole-2-carboxamido)-6-(trifluoromethyl)-[1,1′-biphenyl]-3-carboxylate], the values for the half-maximal inhibitory concentration (IC50) in the assay on AGS, at STAT3 and with LNCaP were over 50 µM, over 10 µM and over 10 µM, respectively.

Take `COC(=O)c1cc(-c2cccc(NC(=O)c3cc4ccc(NS(C)(=O)=O)cc4[nH]3)c2)c(C(F)(F)F)cc1OC` [Example 289, methyl 4-methoxy-3′-(6-(methylsulfonamido)-1H-indole-2-carboxamido)-6-(trifluoromethyl)-[1,1′-biphenyl]-3-carboxylate]: the IC50 with AGS is 32 µM; against STAT3 it was over 10 µM; in the assay on LNCaP, over 10 µM.

With `CS(=O)(=O)Nc1ccc2cc(C(=O)Nc3cccc(-c4ncccc4C(F)(F)F)c3)[nH]c2c1` [Example 290, 6-(methylsulfonamido)-N-(3-(3-(trifluoromethyl)pyridin-2-yl)phenyl)-1H-indole-2-carboxamide], the IC50 in the assay on AGS is 20.9 µM; against STAT3, 7 µM; with LNCaP it was over 10 µM.

`CS(=O)(=O)Nc1ccc2cc(C(=O)Nc3cccc(-c4cnccc4C(F)(F)F)c3)[nH]c2c1` [Example 291, 6-(methylsulfonamido)-N-(3-(4-(trifluoromethyl)pyridin-3-yl)phenyl)-1H-indole-2-carboxamide]: the IC50 in the assay with AGS was 13.9 µM; on STAT3, 3.2 µM; in the assay on LNCaP it was 8.1 µM.

Take `O=C(Nc1cccc(-c2cccnc2C(F)(F)F)c1)c1cc2ccc([N+](=O)[O-])cc2[nH]1` [Example 292, 6-nitro-N-(3-(2-(trifluoromethyl)pyridin-3-yl)phenyl)-1H-indole-2-carboxamide]: the figures for the IC50 in the assay on AGS, against STAT3 and with LNCaP were 43.7 µM, over 10 µM and over 10 µM, respectively.

Regarding `CS(=O)(=O)Nc1ccc2cc(C(=O)Nc3cccc(-c4cnc(Cl)cc4C(F)(F)F)c3)[nH]c2c1` [Example 294, N-(3-(6-chloro-4-(trifluoromethyl)pyridin-3-yl)phenyl)-6-(methylsulfonamido)-1H-indole-2-carboxamide], the IC50 stood at 16.1 µM with AGS, 2.6 µM against STAT3 and 3.5 µM in the assay on LNCaP.

For `COc1ccc(-c2cccc(NC(=O)c3cc4ccc([N+](=O)[O-])cc4[nH]3)c2)c(F)c1` [Example 295, N-(2′-fluoro-4′-methoxy-[1,1′-biphenyl]-3-yl)-6-nitro-1H-indole-2-carboxamide], the results for the concentration for half-maximal inhibition (IC50) with AGS, against STAT3 and in the assay with LNCaP were over 50 µM, over 10 µM and over 10 µM, respectively.

Take `COc1ccc(-c2cccc(NC(=O)c3cc4ccc(NS(C)(=O)=O)cc4n3C(=O)OC(C)(C)C)c2)c(F)c1` [Example 296, tert-butyl 2-((2′-fluoro-4′-methoxy-[1,1′-biphenyl]-3-yl)carbamoyl)-6-(methylsulfonamido)-1H-indole-1-carboxylate]: the IC50 in the assay on AGS was over 50 µM; against STAT3 it was over 10 µM; in the assay on LNCaP, over 10 µM.

For the compound `COc1ccc(F)c(-c2ccnc(NC(=O)c3cc4ccc([N+](=O)[O-])cc4[nH]3)c2)c1` [Example 297, N-(4-(2-fluoro-5-methoxyphenyl)pyridin-2-yl)-6-nitro-1H-indole-2-carboxamide], the results for the IC50 in the assay on AGS, against STAT3 and in the assay with LNCaP were 21.6 µM, over 10 µM and 8.6 µM, respectively.

`COC(=O)c1ccc(Cl)c(-c2cccc(NC(=O)c3cc4ccc([N+](=O)[O-])cc4[nH]3)c2)c1` [Example 298, methyl 6-chloro-3′-(6-nitro-1H-indole-2-carboxamido)-[1,1′-biphenyl]-3-carboxylate]: the IC50 was 31.7 µM in the assay with AGS, over 10 µM on STAT3 and over 10 µM in the assay on LNCaP.

As to `COC(=O)c1ccc(Cl)c(-c2cccc(NC(=O)c3cc4ccc(NS(C)(=O)=O)cc4[nH]3)c2)c1` [Example 299, methyl 6-chloro-3′-(6-(methylsulfonamido)-1H-indole-2-carboxamido)-[1,1′-biphenyl]-3-carboxylate], the IC50 is 43.1 µM in the assay with AGS, 3.1 µM on STAT3 and over 10 µM in the assay with LNCaP.

Turning to `COC(=O)c1ccc(Cl)c(-c2ccnc(NC(=O)c3cc4ccc(NS(C)(=O)=O)cc4[nH]3)c2)c1` [Example 300, methyl 4-chloro-3-(2-(6-(methylsulfonamido)-1H-indole-2-carboxamido)pyridin-4-yl)benzoate], the IC50 was over 50 µM in the assay on AGS, 5.3 µM against STAT3 and over 10 µM with LNCaP.

On to `CS(=O)(=O)Nc1ccc2cc(C(=O)Nc3cc(C#N)cc(-c4ccc(F)cc4C(F)(F)F)c3)[nH]c2c1` [Example 315, N-(5-cyano-4′-fluoro-2′-(trifluoromethyl)-[1,1′-biphenyl]-3-yl)-6-(methylsulfonamido)-1H-indole-2-carboxamide], for which the values for the IC50 in the assay with AGS, against STAT3 and in the assay on LNCaP were 25.9 µM, 2.6 µM and 3 µM, respectively.

On to `CN(c1ccc2cc(C(=O)Nc3cccc(-c4ccccc4C(F)(F)F)c3)n(C)c2c1)S(C)(=O)=O` [Example 343, 1-methyl-6-(N-methylmethylsulfonamido)-N-(2′-(trifluoromethyl)-[1,1′-biphenyl]-3-yl)-1H-indole-2-carboxamide], for which the values for the half-inhibitory concentration (IC50) in the assay on AGS, at STAT3 and with LNCaP were 5.8 µM, 1.8 µM and 2.8 µM, respectively.

Turning to `CN(c1ccc2cc(C(=O)Nc3cccc(-c4ccc(F)cc4F)c3)n(C)c2c1)S(C)(=O)=O` [Example 345, N-(2′,4′-difluoro-[1,1′-biphenyl]-3-yl)-1-methyl-6-(N-methylmethylsulfonamido)-1H-indole-2-carboxamide], the results for the IC50 with AGS, on STAT3 and in the assay on LNCaP were 6.9 µM, 1.6 µM and 3.5 µM, respectively.
